{
  "source": "patent US20220257698A1",
  "about": "“ANGIOTENSIN TYPE 2 (AT2) RECEPTOR AGONISTS FOR USE IN THE TREATMENT OF CANCER” (LANTHIOPEP B.V., priority 2019, published 2022)",
  "key": {"U251MG glioblastoma CDX": {"tested_on": "U251MG glioblastoma CDX", "test": "Tumor hemoglobin level (indirect angiogenesis) in U251MG CDX", "format": "in vivo, cd1 nu/nu mice (human GBM cell line)", "conditions": "KcAng(1-7) 1 μg/kg/d, Losartan 20 mg/kg/d, or both", "experimental": "Efficacy of treatment was evaluated by: […] In brief, tumors were homogenized in double-distilled water. Eighty microliters of homogenates were mixed with 1 mL of Drabkin's solution and incubated for 15 min at room temperature. After centrifugation at 400×g for 5 min, the supernatants were subjected to absorbance measurement at 540 nm. The absorption, which is proportional to hemoglobin concentration, was divided by tumor weight. Effect of KcAng(1-7) and Losartan against heterotopic U251MG cell culture-based xenografts (CDX) in mice. Animals were treated either with vehicle, treated with 20 mg/kg/d Losartan, treated with 1 μ[…](1-7) or treated with a combination of KcAng(1-7) and with Losartan."}, "[1]": {"tested_on": "MaCa4151 breast cancer PDX model", "test": "KcAng(1-7) on growth of breast carcinoma PDX MaCa4151 in mice", "format": "in vivo, NMRI nu/nu mice (human PDX)", "experimental": "In vivo studies were conducted at EPO GmbH Berlin. Large studies (FIG. 1A, 2, 3, 4, 5) comprised 3 groups of 10 mice/group and 5 animals as reserve, as outlined in Table 1. Smaller studies (FIG. 1B, 1C, 1D) comprised 2 groups of mice of 3 mice per group. The animals were allocated to the various treatment groups (e.g. 0.2 μg/kg and 30 μg/kg) with a maximum of 10 animals per group. […] The groups received subcutaneous (s.c.) drug injection (for max. 28 days) as outlined in the Table 1.\nNMRI nu/nu mice were used in this study. The animals were female at age of 6 to 8 weeks. The respective PDX tumors were inoculated subcutaneously (s.c.), and the tumors were grown to achieve palpable tumor sizes before start of the respective treatments. The PDX included breast (MaCa4151), colon (Co9689A), head & neck (HN10309), lung (Lu7433) and ovarian (OvCa13329) cancer (Table 2).\nTreatment with KcAng(1-7) was started with palpable tumors after the randomization of animals regarding tumor volume. KcAng(1-7) was applied s.c. by daily injections at […] or 30 μg/kg dose for a maximum of 28 days (or earlier as defined by the humane end point for the study).\nKcAng(1-7) was prepared as follows: The compounds was suspended in sterile PBS resulting in a clear solution. The remains of this formulation were stored at 4° C.\nTumor growth stimulatory or inhibitory activity of the KcAng(1-7) was evaluated by determination of tumor volumes (TV). During the study, tumor volumes and body weight were measured twice a week, and the ratio of the mean tumor volumes between the compound-treated group and the vehicle-treated group (T/C) was calculated.\nTumor volume=(tumor width)×(tumor width)×(tumor length)+2\nT/C=T÷C • T: Mean estimated tumor volume of the compound-treated group • C: Mean estimated tumor volume of the vehicle-treated group"}, "U87MG glioblastoma CDX": {"tested_on": "U87MG glioblastoma CDX", "test": "Tumor hemoglobin level (indirect angiogenesis) in U87MG CDX", "format": "in vivo, cd1 nu/nu mice (human GBM cell line)", "conditions": "KcAng(1-7) 1 μg/kg/d, Losartan 20 mg/kg/d, or both", "experimental": "Efficacy of treatment was evaluated by: […] Mice with U87MG cell CDX were randomized at day 0. KcAng(1-7) was injected subcutaneously (1 μg/kg) on a daily basis. Losartan was administered intraperitoneal at 20 mg/kg/day. […] In brief, tumors were homogenized in double-distilled water. Eighty microliters of homogenates were mixed with 1 mL of Drabkin's solution and incubated for 15 min at room temperature. After centrifugation at 400×g for 5 min, the supernatants were subjected to absorbance measurement at 540 nm. The absorption, which is proportional to hemoglobin concentration, was divided by tumor weight."}, "[2]": {"conditions": "Gr. B 0.2 μg/kg/d s.c., Day 21 (Meas. 1)"}, "[3]": {"conditions": "Gr. B 0.2 μg/kg/d s.c., Day 23 (Meas. 2)"}, "[4]": {"conditions": "Gr. B 0.2 μg/kg/d s.c., Day 26 (Meas. 3)"}, "[5]": {"conditions": "Gr. B 0.2 μg/kg/d s.c., Day 29 (Meas. 4)"}, "[6]": {"conditions": "Gr. B 0.2 μg/kg/d s.c., Day 34 (Meas. 5)"}, "[7]": {"conditions": "Gr. B 0.2 μg/kg/d s.c., Day 37 (Meas. 6)"}, "[8]": {"conditions": "Gr. C 30 μg/kg/d s.c., Day 21 (Meas. 1)"}, "[9]": {"conditions": "Gr. C 30 μg/kg/d s.c., Day 23 (Meas. 2)"}, "[10]": {"conditions": "Gr. C 30 μg/kg/d s.c., Day 26 (Meas. 3)"}, "[11]": {"conditions": "Gr. C 30 μg/kg/d s.c., Day 29 (Meas. 4)"}, "[12]": {"conditions": "Gr. C 30 μg/kg/d s.c., Day 34 (Meas. 5)"}, "[13]": {"conditions": "Gr. C 30 μg/kg/d s.c., Day 37 (Meas. 6)"}},
  "data": [
    {"substance": "Lys-Asp-Arg-Val-Abu/Ala-Ile-His-Abu/Ala (KDRVAIHA; not fully specified; cyclic thioether (Abu/Ala bridge); VARIANT (5)..(5) /replace=“Abu”; VARIANT (8)..(8) /replace=“Abu”; SITE (1)..(8) /note=“Variant residues given in the sequence have no preference with respect to those in the annotations for variant positions”) [KcAng(1-7)]", "values": [
      {"measurement": "Tumor hemoglobin level, mean (± SEM)", "setting": "U251MG glioblastoma CDX", "value": "18.7 ± 2.1 mg Hb/g of tissue"},
      {"measurement": "effect on tumor growth", "setting": "[1]; 0.2 and 30 μg/kg, 17 days", "value": "did not resulted in an increase of tumor growth or reduced tumor growth"},
      {"measurement": "RTV Mean", "setting": "[1]; [2]", "value": 1},
      {"measurement": "RTV Median", "setting": "[1]; [2]", "value": 1},
      {"measurement": "T/C", "setting": "[1]; [2]", "value": 95.7, "unit": "%"},
      {"measurement": "Tumor Vol. Mean", "setting": "[1]; [2]", "value": 0.163, "unit": "cm^3"},
      {"measurement": "Tumor Vol. Median", "setting": "[1]; [2]", "value": 0.131, "unit": "cm^3"},
      {"measurement": "RTV Mean", "setting": "[1]; [3]", "value": 1.7},
      {"measurement": "RTV Median", "setting": "[1]; [3]", "value": 1.6},
      {"measurement": "T/C", "setting": "[1]; [3]", "value": 105.2, "unit": "%"},
      {"measurement": "Tumor Vol. Mean", "setting": "[1]; [3]", "value": 0.281, "unit": "cm^3"},
      {"measurement": "Tumor Vol. Median", "setting": "[1]; [3]", "value": 0.241, "unit": "cm^3"},
      {"measurement": "RTV Mean", "setting": "[1]; [4]", "value": 2.4},
      {"measurement": "RTV Median", "setting": "[1]; [4]", "value": 2.2},
      {"measurement": "T/C", "setting": "[1]; [4]", "value": 118.4, "unit": "%"},
      {"measurement": "Tumor Vol. Mean", "setting": "[1]; [4]", "value": 0.392, "unit": "cm^3"},
      {"measurement": "Tumor Vol. Median", "setting": "[1]; [4]", "value": 0.368, "unit": "cm^3"},
      {"measurement": "RTV Mean", "setting": "[1]; [5]", "value": 3.4},
      {"measurement": "RTV Median", "setting": "[1]; [5]", "value": 3.2},
      {"measurement": "T/C", "setting": "[1]; [5]", "value": 104.9, "unit": "%"},
      {"measurement": "Tumor Vol. Mean", "setting": "[1]; [5]", "value": 0.55, "unit": "cm^3"},
      {"measurement": "Tumor Vol. Median", "setting": "[1]; [5]", "value": 0.491, "unit": "cm^3"},
      {"measurement": "RTV Mean", "setting": "[1]; [6]", "value": 6.2},
      {"measurement": "RTV Median", "setting": "[1]; [6]", "value": 5.2},
      {"measurement": "T/C", "setting": "[1]; [6]", "value": 120.2, "unit": "%"},
      {"measurement": "Tumor Vol. Mean", "setting": "[1]; [6]", "value": 0.995, "unit": "cm^3"},
      {"measurement": "Tumor Vol. Median", "setting": "[1]; [6]", "value": 1.021, "unit": "cm^3"},
      {"measurement": "RTV Mean", "setting": "[1]; [7]", "value": 10.5},
      {"measurement": "RTV Median", "setting": "[1]; [7]", "value": 7.6},
      {"measurement": "T/C", "setting": "[1]; [7]", "value": 137, "unit": "%"},
      {"measurement": "Tumor Vol. Mean", "setting": "[1]; [7]", "value": 1.607, "unit": "cm^3"},
      {"measurement": "Tumor Vol. Median", "setting": "[1]; [7]", "value": 1.452, "unit": "cm^3"},
      {"measurement": "RTV Mean", "setting": "[1]; [8]", "value": 1},
      {"measurement": "RTV Median", "setting": "[1]; [8]", "value": 1},
      {"measurement": "T/C", "setting": "[1]; [8]", "value": 94.8, "unit": "%"},
      {"measurement": "Tumor Vol. Mean", "setting": "[1]; [8]", "value": 0.162, "unit": "cm^3"},
      {"measurement": "Tumor Vol. Median", "setting": "[1]; [8]", "value": 0.157, "unit": "cm^3"},
      {"measurement": "RTV Mean", "setting": "[1]; [9]", "value": 1.5},
      {"measurement": "RTV Median", "setting": "[1]; [9]", "value": 1.5},
      {"measurement": "T/C", "setting": "[1]; [9]", "value": 92.6, "unit": "%"},
      {"measurement": "Tumor Vol. Mean", "setting": "[1]; [9]", "value": 0.248, "unit": "cm^3"},
      {"measurement": "Tumor Vol. Median", "setting": "[1]; [9]", "value": 0.165, "unit": "cm^3"},
      {"measurement": "RTV Mean", "setting": "[1]; [10]", "value": 2.4},
      {"measurement": "RTV Median", "setting": "[1]; [10]", "value": 2.5},
      {"measurement": "T/C", "setting": "[1]; [10]", "value": 122.3, "unit": "%"},
      {"measurement": "Tumor Vol. Mean", "setting": "[1]; [10]", "value": 0.405, "unit": "cm^3"},
      {"measurement": "Tumor Vol. Median", "setting": "[1]; [10]", "value": 0.383, "unit": "cm^3"},
      {"measurement": "RTV Mean", "setting": "[1]; [11]", "value": 4},
      {"measurement": "RTV Median", "setting": "[1]; [11]", "value": 4},
      {"measurement": "T/C", "setting": "[1]; [11]", "value": 125, "unit": "%"},
      {"measurement": "Tumor Vol. Mean", "setting": "[1]; [11]", "value": 0.655, "unit": "cm^3"},
      {"measurement": "Tumor Vol. Median", "setting": "[1]; [11]", "value": 0.671, "unit": "cm^3"},
      {"measurement": "RTV Mean", "setting": "[1]; [12]", "value": 6.8},
      {"measurement": "RTV Median", "setting": "[1]; [12]", "value": 6.5},
      {"measurement": "T/C", "setting": "[1]; [12]", "value": 130.6, "unit": "%"},
      {"measurement": "Tumor Vol. Mean", "setting": "[1]; [12]", "value": 1.081, "unit": "cm^3"},
      {"measurement": "Tumor Vol. Median", "setting": "[1]; [12]", "value": 1.072, "unit": "cm^3"},
      {"measurement": "RTV Mean", "setting": "[1]; [13]", "value": 9.8},
      {"measurement": "RTV Median", "setting": "[1]; [13]", "value": 9.1},
      {"measurement": "T/C", "setting": "[1]; [13]", "value": 131.2, "unit": "%"},
      {"measurement": "Tumor Vol. Mean", "setting": "[1]; [13]", "value": 1.539, "unit": "cm^3"},
      {"measurement": "Tumor Vol. Median", "setting": "[1]; [13]", "value": 1.522, "unit": "cm^3"},
      {"measurement": "Tumor hemoglobin level, mean (± SEM)", "setting": "U87MG glioblastoma CDX", "value": "8.8 ± 1.0 mg hemoglobin/g of tissue"}
    ]}
  ]
}
